Blank lines part the entries; values can stand above or below the compound they belong to.
Columns and labels:
GPR40 [1] = molecular target: T1, GPR40 (Homo sapiens, UniProt O14842); assay: Aequorin Ca2+ flux assay in CHO cell line stably expressing GPR40; assay type: cell-based; settings: CHO-GPR40 stable cell line; for Emax: compared to natural free fatty acid ligands, read-out: Emax (efficacy)
T1 construct: expressed in transfected cells; host or cells: CHO cell line stably expressing GPR40 and aequorin
T1 sequence (O14842 whole entry): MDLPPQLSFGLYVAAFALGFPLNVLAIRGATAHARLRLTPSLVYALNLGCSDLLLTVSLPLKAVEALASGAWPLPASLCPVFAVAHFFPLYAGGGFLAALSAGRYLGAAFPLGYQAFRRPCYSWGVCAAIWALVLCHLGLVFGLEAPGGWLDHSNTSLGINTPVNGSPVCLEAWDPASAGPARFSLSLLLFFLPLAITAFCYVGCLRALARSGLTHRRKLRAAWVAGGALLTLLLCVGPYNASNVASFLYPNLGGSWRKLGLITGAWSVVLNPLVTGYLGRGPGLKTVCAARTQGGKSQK
Experimental: Since GPR40 agonists with greater intrinsic activity may have improved anti-diabetic properties, we focused our efforts to discover potent synthetic full agonists.
(§1) GPR40 aequorin, plasmid titration, and inositol phosphate assays were performed as described. For aequorin assays, in addition to transient transfection of GPR40 into CHO cells, a CHO cell line stably expressing both GPR40 and aequorin was generated. GLUTag cells were obtained under a license from Dr. Daniel Drucker, University of Toronto. Competition binding experiments were performed using membranes prepared from A9_GPR40 cells. […] Competition binding assays were carried out in 20 mM Hepes pH 7.5, 5 mM MgCl2, 100 mM NaCl and 0.1% (w/v) free fatty acid BSA and bound radioligand was collected on 96-well GF/C filter plates.

GPR40 [2] = molecular target: T1, GPR40; assay: Inositol phosphate accumulation assay in A9 cells stably expressing GPR40 (A9_GPR40); assay type: cell-based; settings: for agonist character: inositol phosphate accumulation, A9 cells stably expressing GPR40 (figure S1)
Experimental: as §1
(A) Structure of selected GPR40 agonists. (B) GPR40 agonists were tested in parallel in vitro in an inositol phosphate accumulation assay in A9 cells stably expressing GPR40. (TIF) Click here for additional data file.

GPR40 [3] = molecular target: T1, GPR40; assay: Competition binding with 3H-AM-1638 on A9_GPR40 membranes; settings: unlabelled competitor
Experimental: as §1

GPR41 (FFAR3) = molecular target: T2, GPR41 (FFAR3) (Homo sapiens, UniProt O14843); assay: GPR41 aequorin assay; assay type: cell-based; settings: up to 10 µM
T2 construct: expressed in transfected cells
T2 sequence (O14843 whole entry, species assumed): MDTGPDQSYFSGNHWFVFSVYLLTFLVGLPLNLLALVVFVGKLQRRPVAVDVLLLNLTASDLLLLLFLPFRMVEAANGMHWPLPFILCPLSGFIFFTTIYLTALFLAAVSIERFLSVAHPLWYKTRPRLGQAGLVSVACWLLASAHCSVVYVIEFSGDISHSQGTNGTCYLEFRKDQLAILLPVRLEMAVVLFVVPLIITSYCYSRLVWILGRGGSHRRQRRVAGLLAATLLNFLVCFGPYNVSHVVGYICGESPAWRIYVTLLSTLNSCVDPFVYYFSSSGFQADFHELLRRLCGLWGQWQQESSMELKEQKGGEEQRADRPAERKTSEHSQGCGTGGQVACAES
Text: (§2) (A) GPR41 (FFAR3) aequorin assay. GPR41 was force coupled to the calcium signaling pathway by co-transfecting the cells with Gqmyri5. (B) GPR43 (FFAR2) aequorin assay. The short chain fatty acid propionate acts as a natural agonist ligand for GPR41 and GPR43. (C) GPR120 aequorin assay. The unsaturated fatty acids α-LNN and DHA act as natural agonist ligands for GPR120. (D) PPAR-gamma luciferase assay using the thiazolidinedione rosiglitazone as a positive control. […] (TIF) Click here for additional data file.

GPR43 (FFAR2) = molecular target: T3, GPR43 (FFAR2) (Homo sapiens, UniProt O15552); assay: GPR43 aequorin assay; assay type: cell-based; settings: up to 10 µM
T3 construct: expressed in transfected cells
T3 sequence (O15552 whole entry, species assumed): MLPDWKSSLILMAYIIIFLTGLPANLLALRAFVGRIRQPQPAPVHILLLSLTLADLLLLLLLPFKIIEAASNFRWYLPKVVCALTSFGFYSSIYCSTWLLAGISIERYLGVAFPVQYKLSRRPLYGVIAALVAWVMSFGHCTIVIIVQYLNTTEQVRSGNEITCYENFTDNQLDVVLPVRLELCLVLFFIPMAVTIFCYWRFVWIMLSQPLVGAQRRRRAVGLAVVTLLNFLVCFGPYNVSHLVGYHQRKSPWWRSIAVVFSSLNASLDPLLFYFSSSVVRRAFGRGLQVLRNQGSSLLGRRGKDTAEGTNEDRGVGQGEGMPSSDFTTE
Text: as §2

GPR120 = molecular target: T4, GPR120 (Homo sapiens, UniProt Q5NUL3); assay: GPR120 aequorin assay; assay type: cell-based; settings: weak activity
T4 construct: expressed in transfected cells
T4 sequence (Q5NUL3 whole entry, species assumed): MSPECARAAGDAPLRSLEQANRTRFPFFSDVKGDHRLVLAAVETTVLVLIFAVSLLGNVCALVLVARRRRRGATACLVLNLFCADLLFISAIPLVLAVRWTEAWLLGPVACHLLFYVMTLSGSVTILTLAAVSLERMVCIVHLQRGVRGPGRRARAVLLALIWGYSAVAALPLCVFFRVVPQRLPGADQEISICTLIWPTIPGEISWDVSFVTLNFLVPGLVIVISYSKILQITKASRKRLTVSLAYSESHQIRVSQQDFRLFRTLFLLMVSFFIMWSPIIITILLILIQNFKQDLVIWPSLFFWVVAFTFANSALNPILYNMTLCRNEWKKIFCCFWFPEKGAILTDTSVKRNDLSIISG
Text: as §2

PPAR alpha = PPAR alpha (Homo sapiens, UniProt Q07869); assay: PPAR-alpha luciferase reporter assay; assay type: cell-based; settings: concentrations up to 10 µM
PPAR alpha, sequence (Q07869 whole entry, species assumed): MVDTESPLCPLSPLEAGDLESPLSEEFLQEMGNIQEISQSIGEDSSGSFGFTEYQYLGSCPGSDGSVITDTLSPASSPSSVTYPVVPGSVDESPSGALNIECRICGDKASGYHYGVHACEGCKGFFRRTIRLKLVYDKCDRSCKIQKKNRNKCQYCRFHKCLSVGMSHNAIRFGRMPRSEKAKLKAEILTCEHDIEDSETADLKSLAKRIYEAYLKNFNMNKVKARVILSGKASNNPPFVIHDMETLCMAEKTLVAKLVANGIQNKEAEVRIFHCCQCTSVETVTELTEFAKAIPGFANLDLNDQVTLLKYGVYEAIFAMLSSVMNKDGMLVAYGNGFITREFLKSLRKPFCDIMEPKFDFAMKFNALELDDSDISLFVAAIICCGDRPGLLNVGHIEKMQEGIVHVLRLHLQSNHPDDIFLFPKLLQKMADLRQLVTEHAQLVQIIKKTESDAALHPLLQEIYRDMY

PPAR delta = PPAR delta (Homo sapiens, UniProt Q03181); assay: PPAR-delta luciferase reporter assay; assay type: cell-based; settings: concentrations up to 10 µM
PPAR delta, sequence (Q03181 whole entry): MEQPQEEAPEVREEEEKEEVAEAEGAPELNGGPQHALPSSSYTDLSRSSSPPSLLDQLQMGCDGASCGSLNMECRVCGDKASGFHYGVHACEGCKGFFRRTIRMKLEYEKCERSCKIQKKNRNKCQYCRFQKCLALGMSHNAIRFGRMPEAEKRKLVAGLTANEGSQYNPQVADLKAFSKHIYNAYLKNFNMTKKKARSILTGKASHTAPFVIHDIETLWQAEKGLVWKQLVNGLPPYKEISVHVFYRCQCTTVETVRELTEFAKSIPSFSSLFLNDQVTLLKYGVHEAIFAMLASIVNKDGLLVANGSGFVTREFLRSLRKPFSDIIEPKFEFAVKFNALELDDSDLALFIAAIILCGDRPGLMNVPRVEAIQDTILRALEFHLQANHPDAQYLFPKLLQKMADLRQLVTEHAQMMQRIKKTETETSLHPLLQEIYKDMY

PPAR gamma = PPAR gamma (Homo sapiens, UniProt P37231); assay: PPAR-gamma luciferase assay; assay type: cell-based; settings: concentrations up to 10 µM
PPAR gamma, sequence (P37231 whole entry): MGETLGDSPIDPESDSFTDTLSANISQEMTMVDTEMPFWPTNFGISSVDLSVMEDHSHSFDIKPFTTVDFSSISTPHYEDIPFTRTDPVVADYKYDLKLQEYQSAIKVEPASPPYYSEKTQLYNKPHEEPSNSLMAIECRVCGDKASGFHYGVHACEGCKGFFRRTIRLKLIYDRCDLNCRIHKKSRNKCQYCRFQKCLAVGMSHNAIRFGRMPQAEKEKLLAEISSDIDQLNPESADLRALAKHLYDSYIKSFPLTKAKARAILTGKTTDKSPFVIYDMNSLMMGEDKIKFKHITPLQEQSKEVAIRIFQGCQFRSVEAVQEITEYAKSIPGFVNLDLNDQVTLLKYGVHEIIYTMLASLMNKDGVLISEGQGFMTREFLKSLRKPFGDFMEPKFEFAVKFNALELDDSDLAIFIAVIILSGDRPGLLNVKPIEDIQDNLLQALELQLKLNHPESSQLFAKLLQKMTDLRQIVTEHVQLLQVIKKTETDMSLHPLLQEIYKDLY
Text: as §2

mouse islets [4] = assay: GSIS assay in mouse islets; assay type: cell-based; settings: 16.7 mM glucose
Experimental: (§3) Mouse islets were isolated and tested for stimulation of GSIS as described. Human islets were purchased from Prodo labs or were obtained from the National Institutes of Health and Juvenile Diabetes Research Foundation supported Islet Cell Resource Consortium (http://icr.coh.org). Islet inositol phosphate assays were performed on islets cells that had been dispersed with trypsin. 10,000 islet cells were plated/well of a 96-well plate and were loaded with ^3H-myo-inositol (0.5 µCi/well) in RPMI overnight prior to treatment. The next day, response to different stimuli was tested in HBSS containing 10 mM LiCl and 0.1% HSA (w/v) for 1 hour at 37°C. Accumulated ^3H-inositol phosphate was measured after capture to SPA beads. Islet perifusion experiments were performed on mouse islets loaded into a Brandel Suprafusion system. Twenty islets were size-matched and loaded per perifusion chamber. Islets were perifused in KRBH containing, sequentially, 3 mM glucose, then 3 mM glucose containing 10 µM drug, 16.7 mM glucose containing 10 µM drug and finally returned to 3 mM glucose containing 10 µM drug. Insulin was measured using an insulin ELISA kit (Alpco). Fetal rat intestinal cells were isolated from e19-day old fetuses of pregnant Sprague-Dawley rats. Briefly, fetal intestines were isolated and digested in HBSS buffer containing 0.5 mg/ml collagenase (Sigma), 0.5 mg/ml of hyaluronidase (Sigma) and 0.05 mg/ml of deoxyribonuclease I (Roche) for 30 minutes at 37°C. The digestion was quenched using HBSS containing 15% FBS. Fetal rat intestinal cells were washed and cultured overnight in DMEM containing 5% FBS in 96-well plates. To test for secretion of GLP-1 and GIP in response to treatments, we incubated cells for 1 hour with treatments in KRBH buffer containing 0.05% BSA (w/v). GLP-1 and GIP1 secreted into the media was measured using ELISA kits specific for GLP-1 (Linco) or GIP (Millipore).

[5] = test system: islets isolated from GPR40 knockout mice; assay: GSIS assay with islets from GPR40 knock-out mice; assay type: cell-based, mouse
Experimental: as §3

human islet cells = assay: Inositol phosphate assay with dispersed human islet cells; assay type: cell-based
Experimental: as §3, with “Briefly, fetal intestines were isolated and digested in HBSS buffer containing 0.5 mg/ml collagenase (Sigma), 0.5 mg/ml of hyaluronidase (Sigma) and 0.05 mg/ml of deoxyribonuclease I (Roche) for 30 minutes at 37°C. The digestion was quenched using HBSS containing 15% FBS. Fetal rat intestinal cells were washed and cultured overnight in DMEM containing 5% FBS in 96-well plates. To test for secretion of GLP-1 and GIP in response to treatments, we incubated cells for 1 hour with treatments in KRBH buffer containing 0.05% BSA (w/v).” left out

human islets = assay: GSIS assay with human islets; assay type: cell-based; settings: 12.5 mM glucose
Experimental: as §3, with “Briefly, fetal intestines were isolated and digested in HBSS buffer containing 0.5 mg/ml collagenase (Sigma), 0.5 mg/ml of hyaluronidase (Sigma) and 0.05 mg/ml of deoxyribonuclease I (Roche) for 30 minutes at 37°C. The digestion was quenched using HBSS containing 15% FBS. Fetal rat intestinal cells were washed and cultured overnight in DMEM containing 5% FBS in 96-well plates. To test for secretion of GLP-1 and GIP in response to treatments, we incubated cells for 1 hour with treatments in KRBH buffer containing 0.05% BSA (w/v).” left out

GLUTag cells = assay: Inositol phosphate accumulation assay in GLUTag enteroendocrine L-cell line; assay type: cell-based, mouse
Experimental: (§4) Increased GLP-1 and GIP would be expected to have additional benefits in type 2 diabetics. […] We tested for potential effects on incretin secretion in vitro by using cells isolated from fetal rat intestines.
as §1

mouse islets [6] = assay: Mouse islet perifusion assay; assay type: cell-based; settings: 10 µM compound
Experimental: as §3

[7] = test system: fetal rat intestinal cells; assay: GLP-1 secretion assay with fetal rat intestinal cells; assay type: cell-based; settings: 1 hour
Text: as §4
Mouse islets were isolated and tested for stimulation of GSIS as described. Human islets were purchased from Prodo labs or were obtained from the National Institutes of Health and Juvenile Diabetes Research Foundation supported Islet Cell Resource Consortium (http://icr.coh.org). Islet inositol phosphate assays were performed on islets cells that had been dispersed with trypsin. 10,000 islet cells were plated/well of a 96-well plate and were loaded with ^3H-myo-inositol (0.5 µCi/well) in RPMI overnight prior to treatment. The next day, response to different stimuli was tested in HBSS containing 10 mM LiCl and 0.1% HSA (w/v) for 1 hour at 37°C. Accumulated ^3H-inositol phosphate was measured after capture to SPA beads. Islet perifusion experiments were performed on mouse islets loaded into a Brandel Suprafusion system. Twenty islets were size-matched and loaded per perifusion chamber. […] Insulin was measured using an insulin ELISA kit (Alpco). […] GLP-1 and GIP1 secreted into the media was measured using ELISA kits specific for GLP-1 (Linco) or GIP (Millipore).

HF/STZ mice [8] = assay: OGTT in high-fat fed, streptozotocin-treated (HF/STZ) type 2 diabetic mice; assay type: in vivo, mouse
Experimental: (§5) All procedures on animals were approved by the Amgen San Francisco Institutional Animal Care and Use Committee (approved protocols #11–04 and #2007–00106). The Amgen San Francisco vivarium is an AAALAC accredited facility. Animals were housed under a 12-h light, 12-h dark cycle (lights-on 0600 h and lights-off 1800 h) and were allowed ad libidum access to chow and water. The HF/STZ mice were established as previously described. Briefly, C57BL/6j mice (Jackson labs) at 4 weeks of age were fed a high-fat diet (BioServ S1850, 35% fat) for 3-weeks and then injected with 95 mg/kg streptozotocin (Sigma) ip to induce beta cell dysfunction. The animals continued on the same high fat diet for 3–6 additional weeks. Animals were then randomized into treatment groups based on fasting blood glucose and insulin measures. NONcNZO10/LtJ (RCS10) male mice (Jackson labs) were used at 12-weeks of age and randomized for treatment based on fasting glucose levels. For OGTT experiments, drugs were formulated in 1% HPMC, 10% HPbCD, 1% Tween-80 and dosed via oral gavage. Glucose was administered at 2 g/kg 1-hour post drug dose by oral gavage.
(§6) For all glucose tolerance tests, glucose and insulin measurements were taken from tail vein samples at various time-points. Blood glucose values were measured on an Accu-Chek glucometer (Roche Diagnostics), while insulin levels were determined using an ELISA (Alpco).

[9] = Unbound plasma drug concentration in HF/STZ mice; assay type: in vivo; settings: C57BL/6j, mouse, 100 mg/kg oral, 1-hour post drug administration, by MS, read-out: free drug level in plasma
mouse GPR40 = mouse GPR40 (Mus musculus, UniProt Q76JU9); assay: Mouse GPR40 inositol phosphate accumulation assay; assay type: cell-based
mouse GPR40, sequence (Q76JU9 whole entry): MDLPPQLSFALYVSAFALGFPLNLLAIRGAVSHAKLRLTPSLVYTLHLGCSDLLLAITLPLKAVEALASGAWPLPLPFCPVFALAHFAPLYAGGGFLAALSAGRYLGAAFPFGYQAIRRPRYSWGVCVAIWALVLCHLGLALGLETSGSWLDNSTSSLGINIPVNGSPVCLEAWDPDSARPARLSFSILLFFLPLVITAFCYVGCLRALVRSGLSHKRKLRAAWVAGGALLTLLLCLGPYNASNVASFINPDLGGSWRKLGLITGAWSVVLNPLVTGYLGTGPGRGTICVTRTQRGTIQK
Experimental: as §1

HF/STZ mice [10] = assay: Single oral dose without glucose challenge in HF/STZ mice: GLP-1, insulin, glucose, GIP; assay type: in vivo, mouse
Experimental: The increase in insulin secretion by GPR40 agonists is due to direct stimulation of GPR40 receptors on pancreatic β-cells, but may also be derived from stimulation of the gut peptides GLP-1 and GIP, which subsequently act on the GLP-1 and GIP G protein-coupled receptors found on pancreatic β-cells. […] No glucose challenge was performed in order to isolate the effects of the compounds alone.
as §5

humans = settings: cited from earlier work
Zucker fatty rats = settings: 21-day, qd dosing; cited from earlier work
[11] = test system: wild type and GPR40 knockout mice; assay: OGTT and GLP-1 secretion in wild type and GPR40 null mice; assay type: in vivo, mouse; settings: OGTT, single oral dose
Experimental: as §5, §6

Compound: O=C(O)CCc1ccc(NCc2cccc(Oc3ccccc3)c2)cc1 [GW-9508, reference compound]
- agonist character (GPR40 [2]): partial agonists

Compound: Cc1cc(OCCCS(C)(=O)=O)cc(C)c1-c1cccc(COc2ccc3c(c2)OC[C@H]3CC(=O)O)c1 [TAK-875]
- glycemic parameters in type 2 diabetic subjects (humans): improve glycemic parameters
- incretin levels in type 2 diabetic patients (humans): not associated with a change in incretin levels

Compound: Cc1ccccc1C#Cc1ccc(CCC(=O)O)cc1 [TUG-424, reference compound]
- agonist character (GPR40 [2]): partial agonists

Compound: N[C@@H](CC(=O)N1CCn2c(nnc2C(F)(F)F)C1)Cc1cc(F)c(F)cc1F [sitagliptin, reference compound]
- improvement in pre- and post-challenge glucose levels ([11]; GPR40 knockout mice): maintained in both
- improvement in pre- and post-challenge glucose levels ([11]; wild type mice): maintained in both

Compound: Exendin-4: exerts its effects via GLP-1R [reference compound]
- GSIS response of GPR40 knockout islets [5]: did respond

More lines, main results first:

- EC50 (GPR40 [1]): 1500 ± 170 nM
- Emax (GPR40 [1]): 98%
Compound: CC#CC(CC(=O)O)c1ccc(OCc2ccc(-c3cccc(OC)c3)cc2)cc1 (racemic) [(±)-AM-8596]

- EC50 (GPR40 [1]): 130 ± 30 nM
- Emax (GPR40 [1]): 105%
- intrinsic activity, fold greater than AMG 837 (GPR40 [2]; inositol phosphate assay): ~2 fold
- EC50 (GPR40 [2]; inositol phosphate assay, 1-hour accumulation, read-out: Half-maximal potency): 5.7 ± 0.8 nM
- displacement of 3H-AM-1638 (GPR40 [3]): displaced ^3H-AM-1638
- activation of GPR41 (FFAR3) (GPR41 (FFAR3)): did not activate
- activation of GPR43 (FFAR2) (GPR43 (FFAR2)): did not activate
- EC50 (GPR120): ~5000 nM
- activation of PPAR alpha (PPAR alpha): did not activate
- activation of PPAR delta (PPAR delta): did not activate
- activation of PPAR gamma (PPAR gamma): did not activate
- EC50 (mouse islets [4]; read-out: EC50 for potentiation of insulin secretion): 940 ± 600 nM
Compound: CC[C@H](CC(=O)O)c1cccc(OCc2ccc(-c3cc(OC)ccc3F)c([C@@H]3CCCC3(C)C)c2)c1F [AM-6226]
- increase of insulin secretion, fold from that of AMG 837 (mouse islets [4]): 3–4 fold
- GSIS response of GPR40 knockout islets [5]: did not respond
- IP production efficacy, fold greater than AMG 837 (human islet cells): 8–10 ×
- stimulation of insulin secretion compared with AMG 837 (human islets): significantly greater
- inositol phosphate accumulation, fold increase compared to AMG 837 (GLUTag cells): 3–4 fold

- EC50 (GPR40 [1]): 2400 ± 100 nM
- Emax (GPR40 [1]): 106%
Compound: C/C=C/[C@H](CC(=O)O)c1ccc(OCc2ccc(-c3cc(OC)ccc3F)cc2)cc1 [AM-8182]

- concentration at 1 h [9]: 826 ± 66 nM
- EC50 (mouse GPR40): 11 ± 0.05 nM
Compound: CC#C[C@@H](CC(=O)O)c1ccc(OCc2cccc(-c3ccc(C(F)(F)F)cc3)c2)cc1 [AMG 837, reference compound]
- insulin stimulation compared to vehicle control (mouse islets [6]; 3 mM glucose): neither AMG 837 nor AM-1638 stimulated insulin
- insulin secretion (mouse islets [6]; 16.7 mM glucose): increased both first and second phase insulin secretion
- GLP-1 release in vitro [7]: could stimulate GLP-1 release
- Glucose AUC improvement (HF/STZ mice [8]; OGTT, 100 mg/kg oral, 1 hour before glucose): 19%
- doses at which maximally efficacious (HF/STZ mice [8]; preliminary experiments): ≥ 60 mg/kg
- blood glucose levels (HF/STZ mice [10]; HF/STZ mice, single oral dose, no glucose challenge): stabilized blood glucose levels
- GLP-1 or GIP levels in vivo (HF/STZ mice [10]; oral gavage, doses as high as 100 mg/kg): does not substantially increase
- glucose and insulin levels in healthy volunteers (humans; phase 1 clinical trials, ref Amgen, data on file): did not lower glucose or increase insulin levels
- anti-diabetic effects after repeated dosing (Zucker fatty rats): sustained anti-diabetic effects

Reference: publication PMC3467217, “A Potent Class of GPR40 Full Agonists Engages the EnteroInsular Axis to Promote Glucose Control in Rodents” (PLoS ONE, 2012)
